From patent US5576324A, “Quinoline derivatives or salt thereof and remedy for cardiac diseases containing the same” (Kowa Co., Ltd., priority 1992, dated 1996)
Counter-ions that a name gives are not always drawn.

Columns and labels:
[1] = system: Guinea Pig Atrium (left atrium contraction); experiment: Inotropic action on guinea pig atrium samples; conditions: Cavia porcellus, 10^-7 M, 1 Hz, 32° C., read-out: Increment of Contraction of the left atrium
Method: Inotropic Action and Action Against Time-dependent Action on Guinea Pig Atrium Samples
Guinea pigs were smashed at the head, and were exsanguinated through a cut in the carotid artery. Their hearts were taken out. From each heart, the right and left atria were obtained. The atria were suspended in Krebs-Henzereit solution at 32° C. through which a gas containing 95% oxygen and 5% carbon dioxide was passed. The tensile strength was measured with a strain gauge, and was amplified and recorded. Beats of right atria were counted using a tachometer, and the counts were regarded as the cardiac rate. Electric pulses (1 Hz, 5 msec) having twice the magnitude of the threshold were applied onto the left atria. The samples were given to […] in an accumulative manner at intervals of 5 minutes.
The results are expressed by the increment of contraction of the left atrium when 10^-7 M of a sample was administered.

[2] = system: Mouse Arrhythmia Induced by Chloroform (ventricular fibrillation); experiment: Action on Mouse Arrhythmia Induced by Chloroform; type: in vivo; conditions: 100 mg/kg given to mice, 20 min before chloroform
Method: Action on Mouse Arrhythmia Induced by Chloroform
Test compounds (100 mg/kg) were given to mice, and 20 minutes thereafter, the mice were confined in a pot filled with chloroform. Upon respiratory stoppage, the mice were immediately taken out of the pot, and electrocardiodiagram (lead II) was recorded to obtain ventricular tachycardia, ventricular fibrillation, and period until the cardiac arrest.

[3] = system: Blood Flow of a Hind Leg of Anesthetic Dog; experiment: Action on the Blood Flow of a Hind Leg of Anesthetic Dog; type: in vivo; conditions: Canis lupus familiaris; 100 μg into femoral artery, anesthetized dog; read-out: Increment of Blood Flow
Method: Action on the Blood Flow of a Hind Leg of Anesthetic Dog
Adult crossbred dogs were put under anesthesia with pentobarbital-Na (30 mg/kg) by intravenous injection, Heparin was administered to each dog, and an extracorporeal circulation circuit was established in the femoral artery, The blood flow in the hind leg was measured with an electromagnetic hemodromometer placed on the circuit, The samples were administered at a dose of 100 μg into the feromal artery through a rubber tube provided on the circuit.

Row | Structure (SMILES) | activation at 0.1 µM [1] | % Inhibition of ventricular fibrillation [2] | change in vivo at 0.1 mg [3]
1 | Cc1cc2c(c3ccc(=O)[nH]c13)OC(CN)C2C (stereo not drawn) [Example 13, (2RS, 3SR)-2-Aminomethyl-3,5-dimethyl-2,3,6,7-tetrahydrofuro[2,3-f]quinoline-7-one.HCl] | 31.8% | – | –
2 | Cc1cc2c(c3ccc(=O)[nH]c13)OC(C)(CN)C2 (stereo not drawn) [Example 20] | – | 100% | –
3 | Cc1cc2c(c3c1NC(=O)CC3)OC(C)(CN)C2 (stereo not drawn) [Example 21] | – | – | 35.7%
4 | Cc1cc2c(c3ccc(=O)[nH]c13)OC(C)(CN)C2(C)C (stereo not drawn) [Example 22] | – | 90% | –
5 | NCC1Cc2c(ccc3[nH]c(=O)ccc23)O1 (stereo not drawn) [Example 50, 2-Aminomethyl-1,2,6,7-tetrahydrofuro[3,2-f]quinoline-7-one] | 11.1% | – | 26.7%
6 | CCN(CC)CC1Cc2cc(C)c3c(c2O1)CCC(=O)N3 (stereo not drawn) [Example 77] | – | 100% | –
7 | Cc1cc2c(c3ccc(=O)[nH]c13)OC(CN1CCCCC1)C2 (stereo not drawn) [Example 82] | – | – | 31%
8 | CCCCNCC1Cc2cc(C)c3[nH]c(=O)ccc3c2O1 (stereo not drawn) [Example 94, 2-(n-butylamino)methyl-5-methyl-2,3,6,7-tetrahydrofuro[2,3-f]quinoline-7-one.HCl] | – | 100% | –
9 | COc1ccc(CCNCC2Cc3cc(C)c4[nH]c(=O)ccc4c3O2)cc1OC (stereo not drawn) [Example 99] | – | – | 97%
10 | CC(=O)OCC1Cc2cc(C)c3[nH]c(=O)ccc3c2O1 (stereo not drawn) [Example 103, 2-Acetoxymethyl-5-methyl-2,3,6,7-tetrahydrofuro-[2,3-f]quinoline-7-one] | 13.1% | – | 66.7%
11 | Cc1cc2c(c3ccc(=O)[nH]c13)OC(CI)C2 (stereo not drawn) [Example 106, 2-Iodomethyl-5-methyl-2,3,6,7-tetrahydrofuro-[2,3-f]quinoline-7-one] | 46.8% | – | 39.5%
12 | Cc1cc2c(c3ccc(=O)[nH]c13)OC(CF)C2 (stereo not drawn) [Example 107, 2-Fluoromethyl-5-methyl-2,3,6,7-tetrahydrofuro-[2,3-f]quinoline-7-one] | – | – | 54.1%
13 | Cc1cc2c(c3c1NC(=O)CC3)OC(CF)C2 (stereo not drawn) [Example 108] | – | – | 54.8%
14 | COCC1Cc2cc(C)c3[nH]c(=O)ccc3c2O1 (stereo not drawn) [Example 109] | 20.3% | – | –
15 | Cc1cc2c(c3c1NC(=O)CC3)OC(CNS(C)(=O)=O)C2 (stereo not drawn) [Example 114] | 18.8% | – | –
16 | NCC1Cc2cc(Cl)c3[nH]c(=O)ccc3c2O1 (stereo not drawn) [Example 120, 2-Aminomethyl-5-chloro-2,3,6,7-tetrahydrofuro[2,3-f]quinoline-7-one.HCl] | – | 90% | 110%
17 | NCC1Cc2cc(Cl)c3c(c2O1)CCC(=O)N3 (stereo not drawn) [Example 121] | – | 100% | –
